This is an account of results in patent US10898582B2, “Bi-functional allosteric protein-drug molecules for targeted therapy” (UNIVERSITY OF UTAH RESEARCH FOUNDATION, priority 2014, dated 2021).

For assay [1], the system named is MCF-7 breast cancer cells. Nature of the assay: Viability of MCF-7 breast cancer cells, dose-dependent IC50. Format: cell-based. How it is done: To test the therapeutic efficacy of the formulation of PTD-ABD-17-AAG in MCF-7 breast cancer cells, the IC50 value was determined in a dose-dependent manner. The IC50 value is a measure of how effective a drug or therapeutic is and is defined as the concentration required to inhibit a biological process or component of a biological process (e.g., enzyme, cell, cell receptor) in half. The PTD-ABD-17-AAG was prepared as described above (Example 1) and administered to cancer cells. MCF-7 cells were exposed to one of the following formulations: 1) PTD-ABD-17-AAG; 2) 17-AAG; or 3) PTD-ABD.

The subject of the next assay is breast cancer cells. Nature of the assay: Short-term (4 hours) treatment of breast cancer cells, dose-dependent IC50. Format: cell-based. As to conditions: breast cancer cells exposed for 4 hours. How it is done:
To examine whether the improved cellular uptake of 17-AAG by the PTD-ABD leads to enhanced efficacy of 17-AAG, breast cancer cells were exposed to 17-AAG or the PTD-ABD-17-AAG for 4 hours in a dose-dependent manner. […] Due to the facilitated uptake of 17-AAG bound to the PTD-ABD, the short-term treatment of 17-AAG at low concentrations can increase the cellular concentration of 17-AAG, which results in the enhanced anti-cancer efficacy of 17-AAG. Free 17-AAG was not sufficiently internalized into cells during the short incubation time because of the poor uptake kinetics of free 17-AAG.

The next assay relates to MCF-7 cells. Nature of the assay: Uptake kinetics of FITC-GM into MCF-7 cells. Format: cell-based. As to conditions: 2 hours post-treatment. As for the experimental part: Finally, 10 μg/ml of GM was sufficient to achieve internalization into 100% of the cell population when delivered by the PTD-ABD protein (FIG. 3c).
The test system of another assay is microtubules. As to conditions: cited from earlier work.

Structures are written as SMILES.

As for `C=CCNC1=C2C[C@@H](C)C[C@H](OC)[C@H](O)[C@@H](C)/C=C(\C)[C@H](OC(N)=O)[C@@H](OC)/C=C\C=C(/C)C(=O)NC(=CC1=O)C2=O` [17-AAG, 17-allylamino-17-demethoxygeldanamycin], it took 15 µM to reach half-maximal inhibition in assay [1] (IC50). Moreover, the IC50 value entry in the assay with breast cancer cells is given as “approximately 25 μg/ml”.

`COC1=C2C[C@@H](C)C[C@H](OC)[C@H](O)[C@@H](C)/C=C(\C)[C@H](OC(N)=O)[C@@H](OC)/C=C\C=C(/C)C(=O)NC(=CC1=O)C2=O` [GM, Geldanamycin]: in the assay with MCF-7 cells, the “cell population positive to FITC (GM internalized)” value was 60%.

Take `CC(=O)O[C@H]1C(=O)[C@@]2(C)[C@H]([C@H](OC(=O)c3ccccc3)[C@]3(O)C[C@H](OC(=O)[C@H](O)[C@@H](NC(=O)c4ccccc4)c4ccccc4)C(C)=C1C3(C)C)[C@]1(OC(C)=O)CO[C@@H]1C[C@@H]2O` [PTX, paclitaxel]: in the assay with microtubules, the “binding affinity Ka to microtubules” value was roughly 6e+07 M⁻¹.

A word on the IC50: it is the concentration that inhibits the measured activity by half. Low values mean greater potency in that assay, high ones weaker potency in that assay.
